Assay results published in patent US20110015067A1, “Herbicidal Compositions Comprising Pyroxasulfone” (BASF SE, priority 2008, published 2011).
Where two headings read alike, the source gives them in different places.

Assays:
[1] = test system: ECHCG (Echinochloa crus-galli); experiment: post-emergence greenhouse test; type: in vivo; conditions: use rate 6.25 g ai/ha, read-out: observed % activity
From the text: (§1) For the post-emergence treatment, the test plants were first grown to a height of 3 to 20 cm, depending on the plant habit, and only then treated. Here, the herbicidal compositions were suspended or emulsified in water as distribution medium and sprayed using finely distributing nozzles.
(§2) The respective herbicides A and/or safener were formulated as 10% by weight strength suspension concentrate and introduced to the spray liquor with the amount of solvent system used for applying the active compound. Herbicide B and/or safener were used as commercially available formulations and introduced to the spray liquor with the amount of solvent system used for applying the active compound. In the examples, the solvent used was water.
(§3) The test period extended over 20 days. During this time, the plants were tended, and their response to the treatments with active compound was evaluated.
(§4) In the following experiments, the herbicidal activity for the individual herbicide compounds (solo application) and of the mixture was assessed 8 days after treatment (8 DAT) and/or 20 days after treatment (20 DAT).
(§5) The evaluation for the damage caused by the chemical compositions was carried out using a scale from 0 to 100%, compared to the untreated control plants. Here, 0 means no damage and 100 means complete destruction of the plants.

[2] = test system: LOLMU (Lolium multiflorum); experiment: post-emergence greenhouse test; type: in vivo; conditions: 50 g ai/ha
From the text: as §1, §2, §3, §4, §5

[3] = test system: AMBEL (Ambrosia artemisifolia); experiment: post-emergence greenhouse test; type: in vivo; conditions: for observed activity in % destruction: 25 g ai/ha; for inhibition at 50 g/ha: Ambrosia, use rate 50 g ai/ha, read-out: observed % activity
From the text: as §1, §2, §3, §4, §5

[4] = test system: CHEAL (Chenopodium album); experiment: post-emergence greenhouse test; type: in vivo; conditions: for inhibition at 6.25 g/ha / inhibition at 25 g/ha / inhibition at 50 g/ha: Chenopodium album, read-out: observed % activity; for inhibition at 6.25 g/ha: use rate 6.25 g ai/ha; for inhibition at 25 g/ha: use rate 25 g ai/ha; for inhibition at 50 g/ha: use rate 50 g ai/ha
From the text: as §1, §2, §3, §4, §5

[5] = test system: COMBE (Commelina benghalensis); experiment: post-emergence greenhouse test; type: in vivo; conditions: read-out: observed % activity; for inhibition at 6.25 g/ha: Table 18, use rate 6.25 g ai/ha; for inhibition at 12.5 g/ha: Table 20, use rate 12.5 g ai/ha
From the text: as §1, §2, §3, §4, §5

SETFA (Setaria faberii) = experiment: post-emergence greenhouse test; type: in vivo; conditions: Setaria faberi, use rate 25 g ai/ha, read-out: observed % activity
From the text: as §1, §2, §3, §4, §5

[6] = test system: ABUTH (Abutilon theophrasti); experiment: post-emergence greenhouse test; type: in vivo; conditions: use rate 6.25 g ai/ha, read-out: observed % activity
From the text: as §1, §2, §3, §4, §5

[7] = test system: BRAPL (Brachiaria plantaginea); experiment: post-emergence greenhouse test; type: in vivo; conditions: Urochloa plantaginea, read-out: observed % activity; for inhibition at 6.25 g/ha: use rate 6.25 g ai/ha; for inhibition at 12.5 g/ha: use rate 12.5 g ai/ha
From the text: as §1, §2, §3, §4, §5

ERBVI = experiment: post-emergence greenhouse test; type: in vivo; conditions: use rate 12.5 g ai/ha, read-out: observed % activity
From the text: as §1, §2, §3, §4, §5

SETVI (Setaria viridis) = experiment: post-emergence greenhouse test; type: in vivo; conditions: use rate 6.25 g ai/ha, read-out: observed % activity
From the text: as §1, §2, §3, §4, §5

ELEIN (Eleusine indica) = experiment: post-emergence greenhouse test; type: in vivo; conditions: use rate 6.25 g ai/ha, read-out: observed % activity
From the text: as §1, §2, §3, §4, §5

[8] = test system: ALOMY (Alopecurus myosuroides); experiment: post-emergence greenhouse test; type: in vivo; conditions: for observed activity in % destruction: 50 g ai/ha; for inhibition at 6.25 g/ha / inhibition at 25 g/ha / inhibition at 50 g/ha: Alopecurus myosuroides, read-out: observed % activity; for inhibition at 6.25 g/ha: use rate 6.25 g ai/ha; for inhibition at 25 g/ha: use rate 25 g ai/ha; for inhibition at 50 g/ha: use rate 50 g ai/ha
From the text: as §1, §2, §3, §4, §5

[9] = test system: PANDI (Panicum dichotomiflorum); experiment: post-emergence greenhouse test; type: in vivo; conditions: use rate 25 g ai/ha, read-out: observed % activity
From the text: as §1, §2, §3, §4, §5

[10] = test system: MERAN (Mercurialis annua); experiment: post-emergence greenhouse test; type: in vivo; conditions: for observed activity in % destruction: 50 g ai/ha; for inhibition at 50 g/ha: Mercurialis annua, use rate 50 g ai/ha, read-out: observed % activity
From the text: as §1, §2, §3, §4, §5

[11] = test system: LOLMU (Lolium multiflorum); experiment: pre-emergence greenhouse test; type: in vivo; conditions: for observed activity in % destruction: pre-emergence
From the text: (§6) For the pre-emergence treatment, directly after sowing the active compounds, which had been suspended or emulsified in water, were applied by means of finely distributed nozzles. The containers were irrigated gently to promote germination and growth and subsequently covered with transparent plastic hoods until plant had rooted. This cover caused uniform germination of the tests plants, unless this was adversely affected by active compounds.
as §2, §3, §4, §5

[12] = test system: AMBEL (Ambrosia artemisifolia); experiment: pre-emergence greenhouse test; type: in vivo; conditions: for observed activity in % destruction: pre-emergence, 50 g ai/ha
From the text: as §6, §2, §3, §4, §5

[13] = test system: CCHEC (Cenchrus echinatus); experiment: pre-emergence greenhouse test; type: in vivo
From the text: as §6, §2, §3, §4, §5

harmful plants = conditions: known from Y. Yamaji et al. 2006; cited from earlier work

In the case of Cn1nc(C(F)(F)F)c(CS(=O)(=O)C2=NOC(C)(C)C2)c1OC(F)F [pyroxasulfone, 3-[5-(difluoromethoxy)-1-methyl-3-(trifluoromethyl)pyrazol-4-ylmethylsulfonyl]-4,5-dihydro-5,5-dimethyl-1,2-oxazole], the inhibition at 6.25 g/ha ([1]; 192 h, 8 DAT) is reported as 30%, the inhibition at 6.25 g/ha ([1]; 480 h, 20 DAT) is reported as 80% and the “observed activity in % destruction” value ([2]; 8 DAT) is reported as 60%. For the same compound, the “observed activity in % destruction” value ([2]; 20 DAT) was 80%, the “observed activity in % destruction” value ([3]; 8 DAT) was 50% and the “observed activity in % destruction” value ([3]; 20 DAT) was 40%. For the same compound, the inhibition at 50 g/ha ([3]; 192 h, 8 DAT) was 50%, the inhibition at 50 g/ha ([3]; 480 h, 20 DAT) was 70% and the “observed activity in % destruction” value ([4]; 6.25 g ai/ha, 8 DAT) was 0%. The “observed activity in % destruction” value ([4]; 6.25 g ai/ha, 20 DAT) was 0%, the “observed activity in % destruction” value ([4]; 12.5 g ai/ha, 8 DAT) was 20% and the “observed activity in % destruction” value ([4]; 12.5 g ai/ha, 20 DAT) was 30%. The “observed activity in % destruction” value ([4]; 25 g ai/ha, 8 DAT) was 35%, the “observed activity in % destruction” value ([4]; 25 g ai/ha, 20 DAT) was 30% and the “observed activity in % destruction” value ([4]; 50 g ai/ha, 8 DAT) was 45%. The “observed activity in % destruction” value ([4]; 50 g ai/ha, 20 DAT) was 60%, the inhibition at 6.25 g/ha ([4]; 192 h, 8 DAT) was 0% and the inhibition at 25 g/ha ([4]; 192 h, 8 DAT) was 35%. For the same compound, the inhibition at 50 g/ha ([4]; 192 h, 8 DAT) was 45%, the inhibition at 6.25 g/ha ([4]; 480 h, 20 DAT) was 0% and the inhibition at 25 g/ha ([4]; 480 h, 20 DAT) was 30%. For the same compound, the inhibition at 50 g/ha ([4]; 480 h, 20 DAT) was 60%, the inhibition at 6.25 g/ha ([5]; 192 h, 8 DAT) was 20% and the inhibition at 12.5 g/ha ([5]; 192 h, 8 DAT) was 30%. It also gave an inhibition at 6.25 g/ha ([5]; 480 h, 20 DAT) of 20%, an inhibition at 12.5 g/ha ([5]; 480 h, 20 DAT) of 40% and an inhibition at 25 g/ha (SETFA (Setaria faberii); 192 h, 8 DAT) of 55%. For the same compound, the inhibition at 25 g/ha (SETFA (Setaria faberii); 480 h, 20 DAT) was 90%, the inhibition at 6.25 g/ha ([6]; 192 h, 8 DAT) was 40% and the inhibition at 6.25 g/ha ([6]; 480 h, 20 DAT) was 40%. The inhibition at 6.25 g/ha ([7]; 192 h, 8 DAT) was 20%, the inhibition at 12.5 g/ha ([7]; 192 h, 8 DAT) was 30% and the inhibition at 6.25 g/ha ([7]; 480 h, 20 DAT) was 40%. It also gave an inhibition at 12.5 g/ha ([7]; 480 h, 20 DAT) of 45%, an inhibition at 12.5 g/ha (ERBVI; 192 h, 8 DAT) of 40% and an inhibition at 12.5 g/ha (ERBVI; 480 h, 20 DAT) of 75%. For the same compound, the inhibition at 6.25 g/ha (SETVI (Setaria viridis); 192 h, 8 DAT) was 40%, the inhibition at 6.25 g/ha (SETVI (Setaria viridis); 480 h, 20 DAT) was 75% and the inhibition at 6.25 g/ha (ELEIN (Eleusine indica); 192 h, 8 DAT) was 55%. The inhibition at 6.25 g/ha (ELEIN (Eleusine indica); 480 h, 20 DAT) was 90%, the “observed activity in % destruction” value ([8]; 8 DAT) was 30% and the “observed activity in % destruction” value ([8]; 20 DAT) was 75%. For the same compound, the inhibition at 6.25 g/ha ([8]; 192 h, 8 DAT) was 20%, the inhibition at 25 g/ha ([8]; 192 h, 8 DAT) was 30% and the inhibition at 50 g/ha ([8]; 192 h, 8 DAT) was 30%. It also gave an inhibition at 6.25 g/ha ([8]; 480 h, 20 DAT) of 30%, an inhibition at 25 g/ha ([8]; 480 h, 20 DAT) of 55% and an inhibition at 50 g/ha ([8]; 480 h, 20 DAT) of 75%. The inhibition at 25 g/ha ([9]; 192 h, 8 DAT) was 60%, the inhibition at 25 g/ha ([9]; 480 h, 20 DAT) was 85% and the “observed activity in % destruction” value ([10]; 8 DAT) was 45%. For the same compound, the “observed activity in % destruction” value ([10]; 20 DAT) was 85%, the inhibition at 50 g/ha ([10]; 192 h, 8 DAT) was 45% and the inhibition at 50 g/ha ([10]; 480 h, 20 DAT) was 85%. For the same compound, the “observed % destruction 20 DAT” value ([11]; LOLMU pre-emergence 6.25 g ai/ha) was 50%, the “observed % destruction 20 DAT” value ([11]; LOLMU pre-emergence 12.5 g ai/ha) was 65% and the “observed % destruction 20 DAT” value ([11]; LOLMU pre-emergence 50 g ai/ha) was 98%. The “observed activity in % destruction” value ([11]; 6.25 g ai/ha, 8 DAT) was 40%, the “observed activity in % destruction” value ([11]; 6.25 g ai/ha, 20 DAT) was 50% and the “observed activity in % destruction” value ([11]; 12.5 g ai/ha, 8 DAT) was 50%. The “observed activity in % destruction” value ([11]; 12.5 g ai/ha, 20 DAT) was 65%, the “observed activity in % destruction” value ([11]; 50 g ai/ha, 8 DAT) was 90% and the “observed activity in % destruction” value ([11]; 50 g ai/ha, 20 DAT) was 98%. For the same compound, the “observed % destruction 20 DAT” value ([12]; AMBEL pre-emergence 6.25 g ai/ha) was 0%, the “observed % destruction 20 DAT” value ([12]; AMBEL pre-emergence 12.5 g ai/ha) was 40% and the “observed % destruction 20 DAT” value ([12]; AMBEL pre-emergence 25 g ai/ha) was 40%. For the same compound, the “observed % destruction 8 DAT” value ([12]; AMBEL pre-emergence 50 g ai/ha) was 50%, the “observed % destruction 20 DAT” value ([12]; AMBEL pre-emergence 50 g ai/ha) was 85% and the “observed activity in % destruction” value ([12]; 8 DAT) was 50%. For the same compound, the “observed activity in % destruction” value ([12]; 20 DAT) was 85%, the “observed % destruction 20 DAT” value ([13]; CCHEC pre-emergence 6.25 g ai/ha) was 35% and the “observed % destruction 20 DAT” value ([13]; CCHEC pre-emergence 12.5 g ai/ha) was 65%. The post-emergence activity (harmful plants) was “poor”.
